Broadly, the IC50 is the concentration at which inhibition is half-maximal. Low values mean greater potency in that assay, high ones weaker potency in that assay.

For the assay, the target named is T1, Human Kv1.5 channels (Homo sapiens, UniProt P22460).
T1 construct: expressed in transfected cells; host or cells: Xenopus laevis oocytes injected with in vitro synthesized Kv1.5-encoding RNA
T1 sequence (P22460 whole entry): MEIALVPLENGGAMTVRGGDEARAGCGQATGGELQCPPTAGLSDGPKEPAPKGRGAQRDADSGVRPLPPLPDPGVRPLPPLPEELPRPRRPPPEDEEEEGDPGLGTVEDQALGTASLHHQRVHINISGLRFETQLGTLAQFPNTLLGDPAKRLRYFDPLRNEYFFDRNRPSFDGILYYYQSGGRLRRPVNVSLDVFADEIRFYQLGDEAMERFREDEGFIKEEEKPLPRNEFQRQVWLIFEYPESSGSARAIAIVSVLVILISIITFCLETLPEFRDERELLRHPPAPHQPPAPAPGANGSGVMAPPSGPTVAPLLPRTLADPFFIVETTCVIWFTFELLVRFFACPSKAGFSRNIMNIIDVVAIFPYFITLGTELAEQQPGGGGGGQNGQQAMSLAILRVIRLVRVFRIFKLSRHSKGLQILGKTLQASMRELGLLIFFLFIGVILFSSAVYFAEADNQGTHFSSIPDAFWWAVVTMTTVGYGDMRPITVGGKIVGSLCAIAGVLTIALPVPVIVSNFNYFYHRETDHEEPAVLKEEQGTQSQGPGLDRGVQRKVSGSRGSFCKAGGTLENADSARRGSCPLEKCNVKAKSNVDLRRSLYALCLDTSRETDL
The assay can be described thus: Kv1.5 currents in Xenopus oocytes, two-microelectrode voltage clamp. It counts as cell-based. To be noted: human Kv1.5 expressed in Xenopus laevis oocytes; voltage jumps 500 ms to 0 mV and 40 mV; room temperature; Hill equation. On the procedure: Human Kv1.5 channels were expressed in Xenopus oocytes. For this purpose, firstly ooytes were isolated from Xenopus laevis and were defolliculated. Kv1.5-encoding RNA which had been synthesized in vitro was then injected into these oocytes. After 1-7 days of Kv1.5 protein expression, the Kv1.5 currents were measured on the oocytes by the two-microelectrode voltage clamp technique. The Kv1.5 channels were for this purpose usually activated with voltage jumps lasting 500 ms to 0 mV and 40 mV. A solution of the following composition flowed through the bath: NaCl 96 mM, KCl 2 mM, CaCl2 1.8 mM, MgCl2 1 mM, HEPES 5 mM (titrated to pH 7.4 with NaOH). These experiments were carried out at room temperature. The following were employed for data acquisition and analysis: geneclamp amplifier (Axon Instruments, Foster City, USA) and MacLab D/A converter and software (ADInstruments, Castle Hill, Australia). The compounds of the invention were tested by adding them in various concentrations to the bath solution. The effects of the compounds were calculated as percentage inhibition of the Kv1.5 control current which was obtained when no compound was added to the solution. The data were then extrapolated using the Hill equation in order to determine the inhibitory concentrations IC50 for the respective compounds.
Turning to `C[C@H](NC(=O)c1cc(Cl)ccc1NS(=O)(=O)c1ccccc1)c1ccccc1` [Example 1, (S)-2-Phenylsulfonylamino-5-chloro-N-(1-phenylethyl)benzamide], the IC50 was 5.5 µM.
For `C[C@@H](NC(=O)c1cc(Cl)ccc1NS(=O)(=O)c1ccccc1)c1ccccc1` [Example 2, (R)-2-Phenylsulfonylamino-5-chloro-N-(1-phenylethyl)benzamide] the value was 8.2 µM; for `CC[C@H](NC(=O)c1cc(Cl)ccc1NS(=O)(=O)c1ccccc1)c1ccccc1` [Example 3, (S)-2-Phenylsulfonylamino-5-chloro-N-(1-phenylpropyl)benzamide], 2.8 µM.
For `CC[C@@H](NC(=O)c1cc(Cl)ccc1NS(=O)(=O)c1ccccc1)c1ccccc1` [Example 4, (R)-2-Phenylsulfonylamino-5-chloro-N-(1-phenylpropyl)benzamide] the value was 4.1 µM; for `COc1ccc([C@H](C)NC(=O)c2cc(Cl)ccc2NS(=O)(=O)c2ccccc2)cc1` [Example 5, (S)-2-Phenylsulfonylamino-5-chloro-N-[1-(4-methoxyphenyl)ethyl]-benzamide], 4.5 µM; for `COc1ccc([C@@H](C)NC(=O)c2cc(Cl)ccc2NS(=O)(=O)c2ccccc2)cc1` [Example 6], 8.2 µM.
`O=C(NC(c1ccccc1)c1ccccn1)c1cc(Cl)ccc1NS(=O)(=O)c1ccccc1` (stereo not shown) [Example 7, 2-Phenylsulfonylamino-5-chloro-N-(phenylpyridin-2-ylmethyl)benzamide] had a half-maximal inhibitory concentration (IC50) of 5.1 µM.
For `Cc1ccc(S(=O)(=O)Nc2ccccc2C(=O)N(Cc2ccccc2)Cc2cccnc2)cc1` [Example 8, N-Benzyl-N-pyridin-3-ylmethyl-2-(toluene-4-sulfonylamino)benzamide] the value was 0.9 µM; for `COc1ccc(S(=O)(=O)Nc2cc(C)ccc2C(=O)NC(C)c2ccccc2)cc1` (stereo not shown) [Example 9], 4.9 µM.
Consider `CCC(NC(=O)c1cccc(C)c1NS(=O)(=O)c1ccc(Cl)cc1)c1ccccc1` (stereo not shown) [Example 10], for which inhibition was half-maximal at 2.5 µM (IC50).
In turn, `CCN(C(=O)c1ccccc1NS(=O)(=O)c1ccc(Cl)cc1)C1CCCCC1` [Example 11] showed a concentration for half-maximal inhibition (IC50) of 8 µM.
In the case of `CCN(C(=O)c1ccccc1NS(=O)(=O)c1ccc(C)cc1)C1CCCCC1` [Example 12] it was 5.4 µM; in that of `Cc1ccc(S(=O)(=O)Nc2ccc(F)cc2C(=O)NC2CCCCC2)cc1` [Example 14], 8.5 µM.
For `CCN(C(=O)c1cc(F)ccc1NS(=O)(=O)c1ccc(C)cc1)C1CCCCC1` [Example 15] the value was 7.8 µM.
In the case of `CCN(C(=O)c1cc(Cl)ccc1NS(=O)(=O)c1ccc(C)cc1)C1CCCCC1` [Example 16] it was 6.4 µM.
In turn, `O=C(NC1CCCCC1)c1cc(Cl)ccc1NS(=O)(=O)c1ccccc1` [Example 17] registered an IC50 of 7.5 µM.
In the case of `CCN(C(=O)c1cc(Cl)ccc1NS(=O)(=O)c1ccccc1)C1CCCCC1` [Example 18] it was 6.7 µM.
In turn, `COc1ccc(S(=O)(=O)Nc2c(C)cccc2C(=O)NC(C)c2ccccc2)cc1` (stereo not shown) [Example 19] showed an IC50 of 4.2 µM.
In the case of `CCCCS(=O)(=O)Nc1cc(C)ccc1C(=O)NC1CCCCC1` [Example 20] it was 7.7 µM; in that of `Cc1ccc(NS(=O)(=O)c2ccccc2)c(C(=O)NC2CCCCC2)c1` [Example 21], 5.2 µM.
For `Cc1cccc(NS(=O)(=O)c2ccc(Cl)cc2)c1C(=O)NC1CCCCC1` [Example 22] the value was 4.8 µM.
In the case of `Cc1cccc(NS(=O)(=O)c2ccc(Cl)cc2)c1C(=O)NC(C)c1ccccc1` (stereo not shown) [Example 23], 5 µM corresponded to half-maximal inhibition (IC50).
The compound `CCC(NC(=O)c1c(C)cccc1NS(=O)(=O)c1ccc(Cl)cc1)c1ccccc1` (stereo not shown) [Example 24] came in with an IC50 of 3 µM.
Consider `COc1ccc(S(=O)(=O)Nc2cc(C)ccc2C(=O)NC2CCCCC2)cc1` [Example 25], for which the IC50 amounted to 3.4 µM.
`CCC(NC(=O)c1cc(OC)ccc1NS(=O)(=O)c1ccc(C)cc1)c1ccccc1` (stereo not shown) [Example 26] displayed an IC50 of 0.6 µM.
